Source: patent publication US6692927B2, “Bax degradation involvement in tumor survival and progression” (University of South Florida, priority 2000, dated 2004)
Where a SMILES comes first, the peptide text is derived from it. [ ]: non-standard residue; d: D form. The star is where a group is joined. Nva = CCC[C@H](N)C(=O)O; Cbz = O=C(OCc1ccccc1)*

Tested on: Bax degradation activity
Assay: cell-free Bax (or Bcl-2) degradation assay with extracts of inhibitor-pretreated cells
Assay type: cell-based, human
Procedure: FIGS. 9A-9F show Bax degradation depends on ubiquitination, proteasome and ATP. (FIG. 9A) Jurkat cells (0 h) were treated with either 50 μM LLnV or 10 μM lactacystin, followed by preparation of Bax immunoprecipitates (with clone 6A7), which were immunoblotted with an ubiquitin antibody. Positions of putative ubiquitinated Bax proteins (p47, p55) are indicated at left. The nature of the ˜30 kDa and ˜84 kDa remains unclear. (FIG. 9B) The [^35S]-labeled Bax (upper) or Bcl-2 (lower) protein (1 μl) were incubated at 37° C. for 2 h with either buffer Z only (lane 1) or […] protein extract of MCF-7 cells grown exponentially (lane 2) or pretreated for 8 h with […] LLnV (lane 3). (FIG. 9C) The [^35S]-labeled Bax protein (1 μl) was incubated with either buffer Z only (lane 1) or 100 μg MCF-7 cell lysate at 37° C. for 4 h, in the presence of an indicated inhibitor (100 mM; lanes 3-8) or an equal volume of DMSO (lane 2) in buffer Z. A weak band of ˜16 kDa (indicated by an arrow) is probably an intermediate product of proteasome-mediated Bax degradation. (FIG. 9D) The proteasome in MCF-7 whole cell lysate (W lys, lane 1) was precipitated by using either ultraspin (ULS) or a proteasome subunit a6 antibody (IP). Both supernatant (lanes 2, 4) and pellet (lanes 3, 5) fractions were examined by Western blot assay using antibody to the proteasome a6 subunit (MW 33 kDa). (FIG. 9E) Bax degradation assay was performed as in FIG. 9B, with addition of buffer Z (lane 1) or 100 μg protein from MCF-7 whole cell lysate (lane 2), ultraspun supernatant (lane 3) or plus the pellet (lane 4), immunodepleted supernatant (lane 5) or plus a purified 20S proteasome ([…]; lane 6), or the purified proteasome alone (2 μg; lane 7). (FIG. 9F) Bax degradation assay was performed as in FIG. 9B, in the absence (lane 3) or presence of 10 mM ATP (lane 2) or 10 mM ATP-y-S (lane 4).
In vitro Bax Degradation Assay: Human Bax-a cDNA subcloned into pcDNA3 was a gift from Dr. Hong-gang Wang. Human full length of bcl-2-a cDNA was cloned from Jurkat T cells and subcloned into pcDNA3.1(−) as described+. Both bax and bcl-2 plasmids were used for coupled in vitro transcription/translation (Promega; Madison, Wis.) in the presence of [^35S]methionine (Amersham Pharmacia Biotech; Piscataway, N.J.). Protein extracts were prepared from either MCF-7 cells or prostate tumor tissues in buffer Y (50 mM Tris-HCl, pH 7.4, 250 mM NaCl, 1% Triton X-100, 0.1% SDS, 1 mM EDTA), and used for Bax (or Bcl-2) degradation assay. […]

[1] = Jurkat T cells pretreated with LLnV (50 µM, 8 hours)

CCC[C@@H](C=O)NC(=O)[C@H](CC(C)C)NC(=O)[C@H](CC(C)C)NC(=O)OCc1ccccc1 [LLnV] (Cbz-Leu-Leu-[Nva]-aldehyde)
Bax degradation activity in the cell extract [1]: inhibited | levels of labeled Bcl-2 after in vitro incubation [1]: no effects | cell-free Bax degradation activity (MCF-7 cells pretreated for 8 h with 50 mM LLnV (FIG. 9B legend)): inhibited | BDA inhibition, VA-13 compared with MCF-7 (cells pretreated with LLnV): a greater inhibition was observed in VA-13 than in MCF-7 cells
